Test results from patent publication US8637496B2, “Compounds having a monogalactosyldiacylglycerol synthase inhibitory activity as herbicide or algaecide, herbicide and algaecide compositions” (Commissariat a l'Energie Atomique, priority 2007, dated 2014).
Where a name gives a salt, the structure may show the parent alone.

molecular target: T1, MGDG synthase in isolated spinach chloroplast envelope membranes (Spinacia oleracea, UniProt Q9SM44); assay: MGDG synthase activity in envelope membrane fractions isolated from spinach chloroplasts; assay type: biochemical; conditions: Table 1, obtained in the same manner as FIG. 4; read-out: Inhibitory effect on MGDG synthesis in isolated spinach chloroplast envelope membranes
T1 construct: envelope membranes purified from the lysate by sucrose centrifugation gradient; from tissue; host or cells: envelope membranes of chloroplasts from spinach leaves
T1 sequence (Q9SM44 99-522): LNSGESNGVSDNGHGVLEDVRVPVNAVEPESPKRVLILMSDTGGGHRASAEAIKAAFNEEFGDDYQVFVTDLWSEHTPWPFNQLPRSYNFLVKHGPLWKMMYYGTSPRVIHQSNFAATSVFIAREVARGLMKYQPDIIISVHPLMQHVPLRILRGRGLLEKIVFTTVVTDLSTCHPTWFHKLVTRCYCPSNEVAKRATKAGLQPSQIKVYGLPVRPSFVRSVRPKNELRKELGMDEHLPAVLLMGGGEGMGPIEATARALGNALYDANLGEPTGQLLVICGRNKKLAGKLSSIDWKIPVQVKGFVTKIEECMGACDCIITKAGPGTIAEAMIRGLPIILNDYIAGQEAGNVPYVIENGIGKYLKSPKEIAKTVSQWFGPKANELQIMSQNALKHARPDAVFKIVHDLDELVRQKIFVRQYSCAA
Text: All the operations have been carried out as described in the article by Maréchal, E. et al., J. Biol. Chem., 1995, 270, 5714-5722. Crude chloroplasts were obtained from 3-4 kg of spinach leaves and purified by isopycnic centrifugation using Percoll gradients. Purified intact chloroplasts have then been lysed in hypotonic medium and envelope membranes purified from the lysate by sucrose centrifugation gradient as described in the article by Douce, R. and Joyard, J., (1982) in Methods in Chloroplast Molecular Biology (Edelman, M., Hallick R and Chua N H eds), pp 239-256, Elsevier Science Publishers B.V. Amsterdam.
MGDG synthase activity was assayed as described in the article by Maréchal et al. (1995).

Row | IC50 [µM] | SMILES
1 | 12 | O=C(OCCCN(Cc1ccccc1)Cc1ccc(Cl)cc1)N1CCC(n2c(=O)[nH]c3ccccc32)CC1 [Compound 83, 3-(benzyl(4-chlorobenzyl)amino)propyl 4-(2-oxo-2,3-dihydro-1H-benzo[d]imidazol-1-yl)piperidine-1-carboxylate]
2 | 45 | CC(C)C[C@@H](COC(=O)N1CCC(n2c(=O)[nH]c3ccccc32)CC1)NCc1ccccc1 [Compound 87, (S)-2-(benzylamino)-4-methylpentyl 4-(2-oxo-2,3-dihydro-1H-benzo[d]imidazol-1-yl)piperidine-1-carboxylate]
3 | 25 | C[C@@H](COC(=O)N1CCC(n2c(=O)[nH]c3ccccc32)CC1)N(Cc1ccccc1)Cc1ccco1 [Compound 79, (S)-2-(benzyl(furan-2-ylmethyl)amino)propyl 4-(2-oxo-2,3-dihydro-1H-benzo[d]imidazol-1-yl)piperidine-1-carboxylate]
4 | 10 | COc1ccccc1CN(CCOC(=O)N1CCC(n2c(=O)[nH]c3ccccc32)CC1)Cc1ccccc1 [Compound 75, 2-(benzyl(2-methoxybenzyl)amino)ethyl 4-(2-oxo-2,3-dihydro-1H-benzo[d]imidazol-1-yl)piperidine-1-carboxylate]
5 | 30 | O=C(OCCCN(Cc1ccccc1)Cc1cccc(Cl)c1)N1CCC(n2c(=O)[nH]c3ccccc32)CC1 [Compound 69, 3-(benzyl(3-chlorobenzyl)amino)propyl 4-(2-oxo-2,3-dihydro-1H-benzo[d]imidazol-1-yl)piperidine-1-carboxylate hydrochloride]
6 | 35 | C[C@@H](COC(=O)N1CCC(n2c(=O)[nH]c3ccccc32)CC1)N(Cc1ccccc1)Cc1ccccn1 [Compound 64, (S)-2-(benzyl(pyridin-2-ylmethyl)amino)propyl 4-(2-oxo-2,3-dihydro-1H-benzo[d]imidazol-1-yl)piperidine-1-carboxylate hydrochloride]
7 | 20 | O=C(OCCN(Cc1ccccc1)Cc1ccccc1OCc1ccccc1)N1CCC(n2c(=O)[nH]c3ccccc32)CC1 [Compound 76, 2-(benzyl(2-(benzyloxy)benzyl)amino)ethyl 4-(2-oxo-2,3-dihydro-1H-benzo[d]imidazol-1-yl)piperidine-1-carboxylate]
8 | 12 | O=C(OCCCN(Cc1ccccc1)Cc1ccc(F)cc1)N1CCC(n2c(=O)[nH]c3ccccc32)CC1 [Compound 67, 3-(benzyl(4-fluorobenzyl)amino)propyl 4-(2-oxo-2,3-dihydro-1H-benzo[d]imidazol-1-yl)piperidine-1-carboxylate hydrochloride]
9 | 50 | O=C(OCCCN(Cc1ccccc1)Cc1cccs1)N1CCC(n2c(=O)[nH]c3ccccc32)CC1 [Compound 66, 3-(benzyl(thiophen-2-ylmethyl)amino)propyl 4-(2-oxo-2,3-dihydro-1H-benzo[d]imidazol-1-yl)piperidine-1-carboxylate hydrochloride]
10 | 8 | O=C(OCCN(Cc1ccccc1)Cc1ccc(Cl)cc1)N1CCC(n2c(=O)[nH]c3ccccc32)CC1 [Compound 74, 2-(benzyl(4-chlorobenzyl)amino)ethyl 4-(2-oxo-2,3-dihydro-1H-benzo[d]imidazol-1-yl)piperidine-1-carboxylate]

The remaining lines, values behind:

Row | SMILES | IC50 [µM]
11 | C[C@@H](COC(=O)N1CCC(n2c(=O)n(C(=O)c3ccccc3)c3ccccc32)CC1)N(Cc1ccccc1)Cc1ccccc1 [Compound 21, (S)-2-(dibenzylamino)propyl 4-(1,2-dihydro-2-oxo-1-(benzoyl)benzo[d]imidazol-3-yl)piperidine-1-carboxylate] | 50
12 | CC(C)(C)C(COC(=O)N1CCC(n2c(=O)[nH]c3ccccc32)CC1)N(Cc1ccccc1)Cc1ccccc1 (stereo not shown) [Compound 31, 2-(dibenzylamino)-3,3-dimethylbutyl 4-(1,2-dihydro-2-oxobenzo[d]imidazol-3-yl)piperidine-1-carboxylate] | 50
13 | O=C(OC[C@H](c1ccccc1)N(Cc1ccccc1)Cc1ccccc1)N1CCC(n2c(=O)[nH]c3ccccc32)CC1 [Compound 34, (S)-2-(dibenzylamino)-2-phenylethyl 4-(1,2-dihydro-2-oxobenzo[d]imidazol-3-yl)piperidine-1-carboxylate] | 40
14 | COc1cccc(CN(Cc2ccccc2)[C@@H](C)COC(=O)N2CCC(n3c(=O)[nH]c4ccccc43)CC2)c1 [Compound 54, (S)-2-(benzyl(3-methoxybenzyl)amino)propyl 4-(2-oxo-2,3-dihydro-1H-benzo[d]imidazol-1-yl)piperidine-1-carboxylate hydrochloride] | 25
15 | O=c1[nH]c2ccccc2n1C1CCN(C(=S)OCCN(Cc2ccccc2)Cc2ccccc2)CC1 [Compound 19, O-2-(dibenzylamino)ethyl 4-(1,2-dihydro-2-oxobenzo[d]imidazol-3-yl)piperidine-1-carbothioate] | 20
16 | C[C@@H](COC(=O)N1CCC(n2c(=O)[nH]c3ncccc32)CC1)N(Cc1ccccc1)Cc1ccccc1 [Compound 2, (S)-2-(dibenzylamino)propyl 4-(2,3-dihydro-2-oxoimidazo[4,5-b]pyridin-1-yl)piperidine-1-carboxylate] | 100 to 500
17 | CC(C)C[C@@H](COC(=O)N1CCC(n2c(=O)[nH]c3ccccc32)CC1)N(Cc1ccccc1)Cc1ccccc1 [Compound 30, (S)-2-(dibenzylamino)-4-methylpentyl 4-(2-oxo-2,3-dihydro-1H-benzo[d]imidazol-1-yl)piperidine-1-carboxylate] | 12
18 | O=C(OCCN(Cc1ccccc1)Cc1cccc(Cl)c1)N1CCC(n2c(=O)[nH]c3ccccc32)CC1 [Compound 50, 2-(benzyl(3-chlorobenzyl)amino)ethyl 4-(2-oxo-2,3-dihydro-1H-benzo[d]imidazol-1-yl)piperidine-1-carboxylate hydrochloride] | 8
19 | O=C(OCCN(Cc1ccccc1)Cc1ccnc2ccccc12)N1CCC(n2c(=O)[nH]c3ccccc32)CC1 [Compound 57, 2-(benzyl(quinolin-4-ylmethyl)amino)ethyl 4-(2-oxo-2,3-dihydro-1H-benzo[d]imidazol-1-yl)piperidine-1-carboxylate hydrochloride] | 75
20 | O=C(OCCC(c1ccccc1)c1ccccc1)N1CCC(n2c(=O)[nH]c3ccccc32)CC1 [Compound 12, 3,3-diphenylpropyl 4-(1,2-dihydro-2-oxobenzo[d]imidazol-3-yl)piperidine-1-carboxylate] | 45
21 | Cn1c(=O)n(C2CCN(C(=O)OC[C@H](Cc3ccccc3)N(Cc3ccccc3)Cc3ccccc3)CC2)c2ccccc21 [Compound 22, (S)-2-(dibenzylamino)-3-phenylpropyl 4-(1,2-dihydro-1-methyl-2-oxobenzo[d]imidazol-3-yl)piperidine-1-carboxylate] | 75
22 | C[C@@H](COC(=O)Nc1ccc(-n2c(=O)[nH]c3ccccc32)cc1)N(Cc1ccccc1)Cc1ccccc1 [Compound 27, 2-(dibenzylamino)propyl 4-(1,2-dihydro-2-oxobenzo[d]imidazol-3-yl)phenylcarbamate] | 45
23 | COc1ccc(CN(CCOC(=O)N2CCC(n3c(=O)[nH]c4ccccc43)CC2)Cc2ccccc2)cc1 [Compound 47, 2-(benzyl(4-methoxybenzyl)amino)ethyl 4-(2-oxo-2,3-dihydro-1H-benzo[d]imidazol-1-yl)piperidine-1-carboxylate hydrochloride] | 15
24 | C[C@@H](COC(=O)N1CCC(n2c(=O)[nH]c3ccccc32)CC1)N(Cc1ccccc1)Cc1ccnc2ccccc12 [Compound 53, (S)-2-(benzyl(quinolin-4-ylmethyl)amino)propyl 4-(2-oxo-2,3-dihydro-1H-benzo[d]imidazol-1-yl)piperidine-1-carboxylate hydrochloride] | 60
25 | CCN(CCOC(=O)N1CCC(n2c(=O)[nH]c3ccccc32)CC1)c1ccccc1 [Compound 17, 2-(ethyl(phenyl)amino)ethyl 4-(2-oxo-2,3-dihydro-1H-benzo[d]imidazol-1-yl)piperidine-1-carboxylate] | 200
26 | COc1ccc(CN(CCCOC(=O)N2CCC(n3c(=O)[nH]c4ccccc43)CC2)Cc2ccccc2)cc1 [Compound 42, 3-(benzyl(4-methoxybenzyl)amino)propyl 4-(2-oxo-2,3-dihydro-1H-benzo[d]imidazol-1-yl)piperidine-1-carboxylate hydrochloride] | 50
27 | COc1ccc(CN(Cc2ccccc2)[C@@H](C)COC(=O)N2CCC(n3c(=O)[nH]c4ccccc43)CC2)cc1 [Compound 39, (S)-2-(benzyl(4-methoxybenzyl)amino)propyl 4-(2-oxo-2,3-dihydro-1H-benzo[d]imidazol-1-yl)piperidine-1-carboxylate hydrochloride] | 60
28 | O=C(OCCN(Cc1ccccc1)Cc1ccc(F)cc1)N1CCC(n2c(=O)[nH]c3ccccc32)CC1 [Compound 45, 2-(benzyl(4-fluorobenzyl)amino)ethyl 4-(2-oxo-2,3-dihydro-1H-benzo[d]imidazol-1-yl)piperidine-1-carboxylate hydrochloride] | 5
